In brackets after ≈: the same amount, converted by molar mass. Read-outs that look alike come from different tables or passages of the source.
How the values were obtained:
UV absorbance peak = UV absorbance peak in solution
ICL [1] = biological target: T1, ICL (Mycobacterium tuberculosis, UniProt P9WKK7); experiment: Isocitrate lyase; type: biochemical; settings: single concentration point of 40 μg/ml
T1 sequence (P9WKK7 1-428): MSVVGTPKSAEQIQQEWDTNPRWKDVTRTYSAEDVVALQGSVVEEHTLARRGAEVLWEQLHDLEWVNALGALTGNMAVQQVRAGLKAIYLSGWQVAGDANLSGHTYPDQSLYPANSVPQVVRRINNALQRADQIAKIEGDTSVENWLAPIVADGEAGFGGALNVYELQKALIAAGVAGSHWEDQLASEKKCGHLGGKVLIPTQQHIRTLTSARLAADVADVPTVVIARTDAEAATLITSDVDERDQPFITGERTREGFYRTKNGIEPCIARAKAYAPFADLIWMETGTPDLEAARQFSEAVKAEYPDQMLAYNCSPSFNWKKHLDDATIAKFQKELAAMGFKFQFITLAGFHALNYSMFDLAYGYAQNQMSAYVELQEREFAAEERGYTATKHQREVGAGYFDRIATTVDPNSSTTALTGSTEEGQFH

mc^2-7000 Mtb = experiment: MABA MIC99 determination, mc^2-7000 strain; type: cell-based, Mycobacterium tuberculosis; settings: for MIC99: Mycobacterium tuberculosis; for MIC99 mc^2-7000 Mtb acetate: M9 media with acetate
[2] = Compound stability in solution; settings: stability in cell growth media or buffer solutions
H37Rv = experiment: MABA MIC99 determination, H37Rv strain; type: cell-based, Mycobacterium tuberculosis
[3] = type: in vitro ADME; settings: equilibrium dialysis
ICL [4] = biological target: T1, ICL; settings: read-out: IC50 against ICL; ref Muñoz-Elías and McKinney, 2005; cited from earlier work
M. tuberculosis = type: in vivo; settings: target dose 30 mg/kg, once a day, 9 days post-infection
[5] = read-out: MIC99 mc^2-7000 Mtb acetate
[6] = read-out: MIC99 mc^2-7000 Mtb dextrose

Structure (SMILES)	λmax (UV absorbance peak) [nM]	MIC99 mc^2-7000 Mtb dextrose (mc^2-7000 Mtb) [µM]	MIC99 mc^2-7000 Mtb acetate (mc^2-7000 Mtb) [µM]	Half-life [2] [h]	other results
O=C(O)/C(O)=C/C(=O)c1ccccc1 [PDKA, (Z)-2-hydroxy-4-oxo-4-phenylbut-2-enoic acid]	340				activity against ICL (ICL [1]): inactive; MIC99 (mc^2-7000 Mtb; [5]): 50 µM (≈ 9.61 µg/mL); MIC99 (mc^2-7000 Mtb; [6]): 25 µM (≈ 4.8 µg/mL); Half-life (physchem): ~72 h
O=C(O)C(=O)CC(=O)c1ccccc1F [Compound 2]	333	200 (≈ 42 µg/mL)	>200	288	
Cc1ccccc1C(=O)CC(=O)C(=O)O [Compound 1]	326	200 (≈ 41.2 µg/mL)	>200	720	H37Rv MIC99 on acetate (H37Rv; acetate): 16 µM; H37Rv MIC99 on dextrose (H37Rv; dextrose): 31 µM; Mouse plasma protein binding [3]: 70.7 ± 1.8%
Cc1ccc(C(=O)CC(=O)C(=O)O)cc1 [Compound 8]	340	100 (≈ 20.6 µg/mL)	50 (≈ 10.3 µg/mL)	190	
O=C(O)C(=O)CC(=O)c1ccc(Br)cc1 [Compound 9]	345	25 (≈ 6.78 µg/mL)	50 (≈ 13.6 µg/mL)	170	
CO[C@H]1/C=C/O[C@@]2(C)Oc3c(C)c(O)c4c(O)c(c(/C=N/N5CCN(C)CC5)c(O)c4c3C2=O)NC(=O)/C(C)=C\C=C\[C@H](C)[C@H](O)[C@@H](C)[C@@H](O)[C@@H](C)[C@H](OC(C)=O)[C@@H]1C [Rifampicin, reference compound]					MIC99 (mc^2-7000 Mtb; [5]): 0.25 µM (≈ 0.206 µg/mL); MIC99 (mc^2-7000 Mtb; [6]): 0.125 µM (≈ 0.103 µg/mL)
O=C(O)CC[N+](=O)[O-] [3-nitropropionate]					IC50 (ICL [4]): 3 µM
O=C(O)C(=O)CC(=O)c1ccccc1Cl [Compound 3]	324	200 (≈ 45.3 µg/mL)	>200	840	
COc1c(N2C[C@@H]3CCCN[C@@H]3C2)c(F)cc2c(=O)c(C(=O)O)cn(C3CC3)c12 [Moxifloxacin]					Decrease in log10 CFU in lungs (M. tuberculosis): 3.07 log10 CFU
O=C(O)C(=O)CC(=O)c1cccc(Cl)c1 [Compound 6]	341	25 (≈ 5.67 µg/mL)	25 (≈ 5.67 µg/mL)	170	
